Data published in patent US9175003B2, “Substituted azoanthracene derivatives and intermediates for preparation thereof” (TransTech Pharma, LLC, priority 2009, dated 2015).

These compounds were tested against human GLP-1 receptor (Homo sapiens (Human), UniProt P43220). Conditions: read-out: Mean EC50; cAMP, HTRF detection, 30 min at 37° C., HEK-293 cells expressing cloned human GLP-1 receptor.
Chain of human GLP-1 receptor (P43220 24-463): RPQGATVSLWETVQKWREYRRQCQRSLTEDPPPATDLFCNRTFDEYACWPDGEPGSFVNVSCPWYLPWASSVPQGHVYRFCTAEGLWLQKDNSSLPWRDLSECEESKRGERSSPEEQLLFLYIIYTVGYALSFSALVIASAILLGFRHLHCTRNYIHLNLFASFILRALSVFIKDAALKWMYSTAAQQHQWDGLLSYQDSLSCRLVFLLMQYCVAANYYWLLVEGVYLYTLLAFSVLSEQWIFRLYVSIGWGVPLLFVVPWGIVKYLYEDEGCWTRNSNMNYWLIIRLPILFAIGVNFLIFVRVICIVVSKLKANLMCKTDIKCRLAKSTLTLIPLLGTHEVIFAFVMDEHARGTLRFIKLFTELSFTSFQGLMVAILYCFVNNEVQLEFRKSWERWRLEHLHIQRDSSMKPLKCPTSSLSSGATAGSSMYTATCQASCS
Compound `CC(=O)N1CC(c2ccc(OCc3ccc(Cl)c(Cl)c3)cc2)Oc2cc3c(cc21)C[C@@H](C(=O)N[C@@H](Cc1ccc(-c2ccc(C#N)cc2)cc1)C(=O)O)N(C(=O)c1ccccc1)C3` (stereo in doubt) [Example 53, (S)-2-({(S)-1-Acetyl-6-benzoyl-3-[4-(3,4-dichloro-benzyloxy)-phenyl]-2,3,5,6,7,8-hexahydro-1H-4-oxa-1,6-diaza-anthracene-7-carbonyl}-amino)-3-(4′-cyano-biphenyl-4-yl)-propionic acid] has an EC50 of 0.38 µM. Work on `Cc1nc(NCC2CC2)ccc1S(=O)(=O)N1Cc2cc3c(cc2C[C@H]1C(=O)N[C@@H](Cc1ccc(-c2ccc(C#N)cc2)cc1)C(=O)O)OC[C@H](c1ccc(OCc2ccc(Cl)c(Cl)c2)cc1)O3` [Example 144, (S)-3-(4′-Cyano-biphenyl-4-yl)-2-({(3S,8S)-7-[6-(cyclopropylmethyl-amino)-2-methyl-pyridine-3-sulfonyl]-3-[4-(3,4-dichloro-benzyloxy)-phenyl]-2,3,6,7,8,9-hexahydro-[1,4]dioxino[2,3-g]isoquinoline-8-carbonyl}-amino)-propionic acid] yielded an EC50 of 0.245 µM. `Cc1nc(C(=O)N2Cc3cc4c(cc3C[C@H]2C(=O)N[C@@H](Cc2ccc(-c3ccnc(C)c3C)cc2)C(=O)O)OC[C@H](c2ccc(OCc3cccc(Cl)c3F)cc2)O4)c(C)o1` [Example 359, (S)-2-{[(3S,8S)-3-[4-(3-Chloro-2-fluoro-benzyloxy)-phenyl]-7-(2,5-dimethyl-oxazole-4-carbonyl)-2,3,6,7,8,9-hexahydro-[1,4]dioxino[2,3-g]isoquinoline-8-carbonyl]-amino}-3-[4-(2,3-dimethyl-pyridin-4-yl)phenyl]-propionic acid] gave an EC50 of 0.117 µM. `Cc1nc(C(=O)N2Cc3cc4c(cc3C[C@H]2C(=O)N[C@@H](Cc2ccc(-c3ccnc(C)c3C)cc2)C(=O)O)OC[C@H](c2ccc(OCc3ccc(Cl)cc3Cl)cc2)O4)c(C)o1` [Example 383, (S)-2-{[(3S,8S)-3-[4-(2,4-dichloro-benzyloxy)-phenyl]-7-(2,5-dimethyl-oxazole-4-carbonyl)-2,3,6,7,8,9-hexahydro-[1,4]dioxino[2,3-g]isoquinoline-8-carbonyl]-amino}-3-[4-(2,3-dimethyl-pyridin-4-yl)-phenyl]-propionic acid] showed an EC50 of 0.138 µM. Work on `Cc1nc(N)sc1C(=O)N1Cc2cc3c(cc2C[C@H]1C(=O)N[C@@H](Cc1ccc(-c2ccc(C#N)cc2)cc1)C(=O)O)OCC(c1ccc(OCc2ccc(Cl)c(Cl)c2)cc1)O3` (stereo in doubt) [Example 126, (S)-2-({(S)-7-(2-Amino-4-methyl-thiazole-5-carbonyl)-3-[4-(3,4-dichloro-benzyloxy)-phenyl]-2,3,6,7,8,9-hexahydro-[1,4]dioxino[2,3-g]isoquinoline-8-carbonyl}-amino)-3-(4′-cyano-biphenyl-4-yl)-propionic acid] yielded an EC50 of 0.312 µM. For `Cc1nccc(-c2ccc(C[C@H](NC(=O)[C@@H]3Cc4cc5c(cc4CN3C(=O)N[C@H](C)c3ccccc3)O[C@@H](c3ccc(O[C@H]4CC[C@H](C(C)(C)C)CC4)cc3)CO5)C(=O)O)cc2)c1C` [Example 389, (S)-2-{[(3S,8S)-3-[4-(trans-4-tert-Butyl-cyclohexyloxy)-phenyl]-7-((R)-1-phenyl-ethylcarbamoyl)-2,3,6,7,8,9-hexahydro-[1,4]dioxino[2,3-g]isoquinoline-8-carbonyl]-amino}-3-[4-(2,3-dimethyl-pyridin-4-yl)-phenyl]-propionic acid], the EC50 was 0.191 µM. Work on `Cc1nc(C(=O)N2Cc3cc4c(cc3C[C@H]2C(=O)N[C@@H](Cc2ccc(-c3ccnc(C)c3C)cc2)C(=O)O)OC[C@H](c2ccc(OCC3CCC(F)(F)CC3)cc2)O4)c(C)o1` [Example 223, (S)-2-{[(3S,8S)-3-[4-(4,4-Difluoro-cyclohexylmethoxy)-phenyl]-7-(2,5-dimethyl-oxazole-4-carbonyl)-2,3,6,7,8,9-hexahydro-[1,4]dioxino[2,3-g]isoquinoline-8-carbonyl]-amino}-3-[4-(2,3-dimethyl-pyridin-4-yl)-phenyl]propionic acid] yielded an EC50 of 0.176 µM. For `Cc1nccc(-c2ccc(C[C@H](NC(=O)[C@@H]3Cc4cc5c(cc4CN3C(=O)C3CCCC3)O[C@@H](c3ccc(OCc4ccc(Cl)c(Cl)c4)cc3)CO5)C(=O)O)cc2)c1C` [Example 154, (S)-2-({(3S,8S)-7-Cyclopentanecarbonyl-3-[4-(3,4-dichloro-benzyloxy)-phenyl]-2,3,6,7,8,9-hexahydro-[1,4]dioxino[2,3-g]isoquinoline-8-carbonyl}-amino)-3-[4-(2,3-dimethyl-pyridin-4-yl)-phenyl]-propionic acid], the EC50 was 0.108 µM. For `COc1cc(C)ccc1S(=O)(=O)N1Cc2cc3c(cc2C[C@H]1C(=O)N[C@@H](Cc1ccc(-c2ccc(C#N)cc2)cc1)C(=O)O)OC[C@H](c1ccc(OCc2ccc(Cl)c(Cl)c2)cc1)O3` [Example 98, (S)-3-(4′-Cyano-biphenyl-4-yl)-2-{[(3S,8S)-3-[4-(3,4-dichloro-benzyloxy)-phenyl]-7-(2-methoxy-4-methyl-benzenesulfonyl)-2,3,6,7,8,9-hexahydro-[1,4]dioxino[2,3-g]isoquinoline-8-carbonyl]-amino}-propionic acid], the EC50 was 0.377 µM. For `Cc1nc(C(=O)N2Cc3cc4c(cc3C[C@H]2C(=O)N[C@@H](Cc2ccc(-c3ccnc(C)c3C)cc2)C(=O)O)OC[C@H](c2ccc(O[C@H]3CC[C@@H](C(C)(C)C)CC3)cc2)O4)c(C)o1` [Example 386, (S)-2-{[(3S,8S)-3-[4-(cis-4-tert-Butyl-cyclohexyloxy)-phenyl]-7-(2,5-dimethyl-oxazole-4-carbonyl)-2,3,6,7,8,9-hexahydro-[1,4]dioxino[2,3-g]isoquinoline-8-carbonyl]-amino}-3-[4-(2,3-dimethyl-pyridin-4-yl)-phenyl]-propionic acid], the EC50 was 0.269 µM. `CC[C@@H](c1ccccc1)N1Cc2cc3c(cc2C[C@H]1C(=O)N[C@@H](Cc1ccc(-c2ccnc(C)c2C)cc1)C(=O)O)OC[C@H](c1ccc(OCCC2CCCC2)cc1)O3` [Example 167, (S)-2-{[(3S,8S)-3-[4-(2-Cyclopentyl-ethoxy)-phenyl]-7-((S)-1-phenyl-propyl)-2,3,6,7,8,9-hexahydro-[1,4]dioxino[2,3-g]isoquinoline-8-carbonyl]-amino}-3-[4-(2,3-dimethyl-pyridin-4-yl)-5 phenyl]-propionic acid] was tested, and the EC50 was 0.174 µM. `CC[C@@H](c1ccccc1)N1Cc2cc3c(cc2C[C@H]1C(=O)N[C@@H](Cc1ccc(-c2ccnc(C)c2C)cc1)C(=O)O)OC[C@@H](c1ccc(OCc2ccc(Cl)c(Cl)c2)cc1)O3` [Example 430, (S)-2-{[(3R,8S)-3-[4-(3,4-Dichloro-benzyloxy)-phenyl]-7-((S)-1-phenyl-propyl)-2,3,6,7,8,9-hexahydro-[1,4]dioxino[2,3-g]isoquinoline-8-carbonyl]-amino}-3-[4-(2,3-dimethyl-pyridin-4-yl)-phenyl]-propionic acid] gave an EC50 of 0.012 µM. `Cc1nc(N2CCOCC2)ccc1S(=O)(=O)N1Cc2cc3c(cc2C[C@H]1C(=O)N[C@@H](Cc1ccc(-c2ccc(C#N)cc2)cc1)C(=O)O)OCC(c1ccc(OCc2ccc(Cl)c(Cl)c2)cc1)O3` (stereo in doubt) [Example 133, (S)-3-(4′-Cyano-biphenyl-4-yl)-2-{[(S)-3-[4-(3,4-dichloro-benzyloxy)-phenyl]-7-(2-methyl-6-morpholin-4-yl-pyridine-3-sulfonyl)-2,3,6,7,8,9-hexahydro-[1,4]dioxino[2,3-g]isoquinoline-8-carbonyl]-amino}-propionic acid] gave an EC50 of 0.054 µM. Compound `Cc1nc(C(=O)N2Cc3cc4c(cc3C[C@H]2C(=O)N[C@@H](Cc2ccc(-c3ccnc(C)c3C)cc2)C(=O)O)OC[C@H](c2ccc(OCC3CCC(C(F)(F)F)CC3)cc2)O4)c(C)o1` (stereo partly drawn) [Example 225, (S)-2-({(3S,8S)-7-(2,5-Dimethyl-oxazole-4-carbonyl)-3-[4-(4-trifluoromethyl-cyclohexylmethoxy)-phenyl]-2,3,6,7,8,9-hexahydro-[1,4]dioxino[2,3-g]isoquinoline-8-carbonyl}-amino)-3-[4-(2,3-dimethyl-pyridin-4-yl)-phenyl]-propionic acid] has an EC50 of 0.183 µM. In the case of `CCC(=O)Nc1nc(C)c(S(=O)(=O)N2Cc3cc4c(cc3C[C@H]2C(=O)N[C@@H](Cc2ccc(-c3ccc(C#N)cc3)cc2)C(=O)O)OCC(c2ccc(OCc3ccc(Cl)c(Cl)c3)cc2)O4)s1` (stereo partly drawn) [Example 132, (S)-3-(4′-Cyano-biphenyl-4-yl)-2-{[(S)-3-[4-(3,4-dichloro-benzyloxy)-phenyl]-7-(4-methyl-2-propionylamino-thiazole-5-sulfonyl)-2,3,6,7,8,9-hexahydro-[1,4]dioxino[2,3g]isoquinoline-8-carbonyl]-amino}-propionic acid], the EC50 is reported as 0.214 µM. `Cc1nccc(Oc2ccc(C[C@H](NC(=O)[C@@H]3Cc4cc5c(cc4CN3C(=O)OCc3ccccc3)O[C@@H](c3ccc(OCc4ccc(Cl)c(Cl)c4)cc3)CO5)C(=O)O)cc2)c1C` [Example 302, (3S,8S)-8-{(S)-1-Carboxy-2-[4-(2,3-dimethyl-pyridin-4-yloxy)-phenyl]-ethylcarbamoyl}-3-[4-(3,4-dichloro-benzyloxy)-phenyl]-2,3,8,9-tetrahydro-6H-[1,4]dioxino[2,3-g]isoquinoline-7-carboxylic acid benzyl ester] gave an EC50 of 0.182 µM. With `Cc1nccc(-c2ccc(C[C@H](NC(=O)[C@@H]3Cc4cc5c(cc4CN3C(=O)c3cccc(F)c3)O[C@@H](c3ccc(OCc4ccc(Cl)c(Cl)c4)cc3)CO5)C(=O)O)cc2)c1C` [Example 409, (S)-2-{[(3S,8S)-3-[4-(3,4-Dichloro-benzyloxy)-phenyl]-7-(3-fluoro-benzoyl)-2,3,6,7,8,9-hexahydro-[1,4]dioxino[2,3-g]isoquinoline-8-carbonyl]-amino}-3-[4-(2,3-dimethyl-pyridin-4-yl)-phenyl]-propionic acid] the EC50 was 0.024 µM. Compound `CNc1nc(C)c(S(=O)(=O)N2Cc3cc4c(cc3C[C@H]2C(=O)N[C@@H](Cc2ccc(-c3ccc(C#N)cc3)cc2)C(=O)O)OC[C@@H](c2ccc(OCc3ccc(Cl)c(Cl)c3)cc2)O4)s1` [Example 61, (S)-3-(4′-Cyano-biphenyl-4-yl)-2-{[(3R,8S)-3-[4-(3,4-dichloro-benzyloxy)-phenyl]-7-(4-methyl-2-methylamino-thiazole-5-sulfonyl)-2,3,6,7,8,9-hexahydro-[1,4]dioxino[2,3-g]isoquinoline-8-carbonyl]-amino}-propionic acid] has an EC50 of 0.073 µM.
